Reference: patent US8148349B2, “Nucleoside cyclic phosphoramidates for the treatment of RNA-dependent RNA viral infection” (Istituto di Ricerche di Biologia Molecolare P. Angeletti …, priority 2006, dated 2012)

The molecules below were run on subgenomic HCV Replicon in HuH-7 cells (assay: Assay for Inhibition of HCV RNA Replication (Replicon assay)). Settings: Hepatitis C virus, Huh-7, read-out: Replicon Assay EC50.
Format: cell-based, Hepatitis C Virus
Procedure: A. Assay for Inhibition of HCV RNA Replication:
The compounds of the present invention are evaluated for their ability to affect the replication of Hepatitis C Virus RNA in cultured hepatoma (HuH-7) cells containing a subgenomic HCV Replicon. The details of the assay are described below. This Replicon assay is a modification of that described in V. Lohmann, F. Korner, J-O. Koch, U. Herian, L. Theilmann, and R. Bartenschlager, “Replication of a Sub-genomic Hepatitis C Virus RNAs in a Hepatoma Cell Line,” Science 285:110 (1999).
The assay is an in situ Ribonuclease protection, Scintillation Proximity based-plate assay (SPA). 10,000-40,000 cells are plated in 100-200 μL of media containing 0.8 mg/mL G418 in 96-well cytostar plates (Amersham). Compounds are added to cells at various concentrations up to 100 μM in 1% DMSO at time 0 to 18 h and then cultured for 24-96 h. Cells are fixed (20 min, 10% formalin), permeabilized (20 min, 0.25% Triton X-100/PBS) and hybridized (overnight, 50° C.) with a single-stranded ^33P RNA probe complementary to the (+) strand NS5B (or other genes) contained in the RNA viral genome. Cells are washed, treated with RNAse, washed, heated to 65° C. and counted in a Top-Count. Inhibition of replication is read as a decrease in counts per minute (cpm).
Human HuH-7 hepatoma cells, which are selected to contain a subgenomic replicon, carry a cytoplasmic RNA consisting of an HCV 5′ non-translated region (NTR), a neomycin selectable marker, an EMCV IRES (internal ribosome entry site), and HCV non-structural proteins NS3 through NS5B, followed by the 3′ NTR.

Molecule | EC50 [µM]
CCCCOC(=O)[C@H](C)NP1(=O)OC[C@H]2O[C@@H](n3ccc(N)nc3=O)[C@](C)(O)[C@@H]2O1 (single isomer, unassigned) [Example 1] | 15
CCOC(=O)[C@H](C)NP1(=O)OC[C@H]2O[C@@H](n3ccc(N)nc3=O)[C@](C)(O)[C@@H]2O1 (single isomer, unassigned) [Example 2] | 4
C[C@H](NP1(=O)OC[C@H]2O[C@@H](n3ccc(N)nc3=O)[C@](C)(O)[C@@H]2O1)C(=O)OC(C)(C)C (stereo partly drawn) [Example 4, tert-butyl N-[(4aR,6R,7R,7aR)-6-(4-amino-2-oxopyrimidin-1(2H)-yl)-7-hydroxy-7-methyl-2-oxidotetrahydro-4H-furo[3,2d][1,3,2]dioxaphosphinin-2-yl]-L-alaninate] | > 20
CCCCOC(=O)[C@H](C)NP1(=O)OC[C@H]2O[C@@H](n3ccc(N)nc3=O)[C@](C)(O)[C@@H]2O1 (stereo partly drawn) [Example 5, n-butyl N-[(4aR,6R,7R,7aR)-6-(4-amino-2-oxopyrimidin-1(2H)-yl)-7-hydroxy-7-methyl-2-oxidotetrahydro-4H-furo[3,2d][1,3,2]dioxaphosphinin-2-yl]-L-alaninate] | 15
CCOC(=O)[C@H](CC)NP1(=O)OC[C@H]2O[C@@H](n3ccc(N)nc3=O)[C@](C)(O)[C@@H]2O1 (stereo partly drawn) [Example 6, ethyl (2S)-2-{[(4aR,6R,7R,7aR)-6-(4-amino-2-oxopyrimidin-1(2H)-yl)-7-hydroxy-7-methyl-2-oxidotetrahydro-4H-furo[3,2d][1,3,2]dioxaphosphinin-2-yl]amino}butanoate] | 6
CCC[C@H](NP1(=O)OC[C@H]2O[C@@H](n3ccc(N)nc3=O)[C@](C)(O)[C@@H]2O1)C(=O)OCC (stereo partly drawn) [Example 8, ethyl N-[(4aR,6R,7R,7aR)-6-(4-amino-2-oxopyrimidin-1(2H)-yl)-7-hydroxy-7-methyl-2-oxidotetrahydro-4H-furo[3,2-d][1,3,2]dioxaphosphinin-2-yl]-L-norvalinate] | > 20
CCOC(=O)[C@H](C)NP1(=O)OC[C@H]2O[C@@H](n3ccc(N)nc3=O)[C@](C)(O)[C@@H]2O1 (stereo partly drawn) [Example 10, ethyl N-[(4aR,6R,7R,7aR)-6-(4-amino-2-oxopyrimidin-1(2H)-yl)-7-hydroxy-7-methyl-2oxidotetrahydro-4H-furo[3,2-d][1,3,2]-dioxaphosphinin-2-yl]-L-alaninate] | 4

Same assay, conditions: Hepatitis C virus; HuH-7 cells containing a subgenomic HCV Replicon; read-out: Replicon Assay EC50

Molecule | EC50 [µM]
CCCCCCCOC(=O)[C@H](C)NP1(=O)OC[C@H]2O[C@@H](n3ccc(N)nc3=O)[C@](C)(O)[C@@H]2O1 (single isomer, unassigned) [Example 3] | 5
CCOC(=O)[C@H](CC(C)C)NP1(=O)OC[C@H]2O[C@@H](n3ccc(N)nc3=O)[C@](C)(O)[C@@H]2O1 (stereo partly drawn) [Example 7, ethyl N-[(4aR,6R,7R,7aR)-6-(4-amino-2-oxopyrimidin-1(2H)-yl)-7-hydroxy-7-methyl-2-oxidotetrahydro-4H-furo[3,2-d][1,3,2]dioxaphosphinin-2-yl]-L-leucinate] | 50
C[C@H](NP1(=O)OC[C@H]2O[C@@H](n3ccc(N)nc3=O)[C@](C)(O)[C@@H]2O1)C(=O)OC1CCCC1 (stereo partly drawn) [Example 9, cyclopentyl N-[(4aR,6R,7R,7aR)-6-(4-amino-2-oxopyrimidin-1(2H)-yl)-7-hydroxy-7-methyl-2-oxidotetrahydro-4H-furo[3,2d][1,3,2]-dioxaphosphinin-2-yl]-L-alaninate] | > 20
CCCCCCCOC(=O)[C@H](C)NP1(=O)OC[C@H]2O[C@@H](n3ccc(N)nc3=O)[C@](C)(O)[C@@H]2O1 (stereo partly drawn) [Example 11, n-heptyl N-[(4aR,6R,7R,7aR)-6-(4-amino-2-oxopyrimidin-1(2H)-yl)-7-hydroxy-7-methyl-2oxidotetrahydro-4Hfuro[3,2d][1,3,2]-dioxaphosphinin-2-yl]-L-alaninate] | 10
C[C@H](NP1(=O)OC[C@H]2O[C@@H](n3ccc(N)nc3=O)[C@](C)(O)[C@@H]2O1)C(=O)OC1CCCCC1 (stereo partly drawn) [Example 12, cyclohexyl N-[(4aR,6R,7R,7aR)-6-(4-amino-2-oxopyrimidin-1(2H)-yl)-7-hydroxy-7-methyl-2oxidotetrahydro-4Hfuro[3,2d][1,3,2]dioxaphosphinin-2-yl]-L-alaninate] | > 20
CC(C)CCOC(=O)[C@H](C)NP1(=O)OC[C@H]2O[C@@H](n3ccc(N)nc3=O)[C@](C)(O)[C@@H]2O1 (stereo partly drawn) [Example 13, isopentyl N-[(4aR,6R,7R,7aR)-6-(4-amino-2-oxopyrimidin-1(2H)-yl)-7-hydroxy-7-methyl-2-oxidotetrahydro-4H-furo[3,2d][1,3,2]-dioxaphosphinin-2-yl]-L-alaninate] | > 20
CCC(CC)COC(=O)[C@H](C)NP1(=O)OC[C@H]2O[C@@H](n3ccc(N)nc3=O)[C@](C)(O)[C@@H]2O1 (stereo partly drawn) [Example 15, 2-ethylbutyl N-[(4aR,6R,7R,7aR)-6-(4-amino-2-oxopyrimidin-1(2H)-yl)-7-hydroxy-7-methyl-2-oxidotetrahydro-4H-furo[3,2-d][1,3,2]dioxaphosphinin-2-yl]-L-alaninate] | > 20
CCCC(CCC)COC(=O)[C@H](C)NP1(=O)OC[C@H]2O[C@@H](n3ccc(N)nc3=O)[C@](C)(O)[C@@H]2O1 (stereo partly drawn) [Example 16, 2-propylpentyl N-[(4aR,6R,7R,7aR)-6-(4-amino-2-oxopyrimidin-1(2H)-yl)-7-hydroxy-7-methyl-2-oxidotetrahydro-4H-furo[3,2-d][1,3,2]dioxaphosphinin-2-yl]-L-alaninate] | 14
CCCCCCOCCOC(=O)[C@H](C)NP1(=O)OC[C@H]2O[C@@H](n3ccc(N)nc3=O)[C@](C)(O)[C@@H]2O1 (stereo partly drawn) [Example 17, 2-(hexyloxy)ethyl N-[(4aR,6R,7R,7aR)-6-(4-amino-2-oxopyrimidin-1(2H)-yl)-7-hydroxy-7-methyl-2-oxidotetrahydro-4H-furo[3,2-d][1,3,2]dioxaphosphinin-2-yl]-L-alaninate] | 15
C[C@H](NP1(=O)OC[C@H]2O[C@@H](n3ccc(N)nc3=O)[C@](C)(O)[C@@H]2O1)C(=O)OC1CCCCCC1 (stereo partly drawn) [Example 18, cycloheptyl N-[(4aR,6R,7R,7aR)-6-(4-amino-2-oxopyrimidin-1(2H)-yl)-7-hydroxy-7-methyl-2-oxidotetrahydro-4H-furo[3,2-d][1,3,2]dioxaphosphinin-2-yl]-L-alaninate] | > 10
C[C@H](NP1(=O)OC[C@H]2O[C@@H](n3ccc(N)nc3=O)[C@](C)(O)[C@@H]2O1)C(=O)OCCCC1CCCCC1 (stereo partly drawn) [Example 19, 3-cyclohexylpropyl N-[(4aR,6R,7R,7aR)-6-(4-amino-2-oxopyrimidin-1(2H)-yl)-7-hydroxy-7-methyl-2-oxidotetrahydro-4H-furo[3,2-d][1,3,2]dioxaphosphinin-2-yl]-L-alaninate] | 10
CCCC(CCC)C(=O)Nc1ccn([C@@H]2O[C@@H]3COP(=O)(N[C@@H](CC)C(=O)OCC)O[C@H]3[C@@]2(C)O)c(=O)n1 (stereo partly drawn) [Example 20, Ethyl (2S)-2-({(4aR,6R,7R,7aR)-7-hydroxy-7-methyl-2-oxido-6-[2-oxo-4-[(2-propylpentanoyl)amino]pyrimidin-1(2H)-yl]tetrahydro-4H-furo[3,2-d][1,3,2]dioxaphosphinin-2-yl}amino)butanoate] | > 20
CCCC(CCC)C(=O)Nc1ccn([C@@H]2O[C@@H]3COP(=O)(N[C@@H](C)C(=O)OCC)O[C@H]3[C@@]2(C)O)c(=O)n1 (stereo partly drawn) [Example 21, ethyl N-{(4aR,6R,7R,7aR)-7-hydroxy-7-methyl-2-oxido-6-[2-oxo-4-[(2-propylpentanoyl)amino]pyrimidin-1(2H)-yl]tetrahydro-4H-furo[3,2-d][1,3,2]dioxaphosphinin-2-yl}-L-alaninate] | > 20
CCCCCCCOC(=O)[C@H](C)NP1(=O)OC[C@H]2O[C@@H](n3ccc(NC(=O)OCCCN(C)C)nc3=O)[C@](C)(O)[C@@H]2O1 (stereo partly drawn) [Example 23, n-heptyl N-{(4aR,6R,7R,7aR)-6-[4-({[3-(dimethylamino)propoxy]carbonyl}amino)-2-oxopyrimidin-1(2H)-yl]-7-hydroxy-7-methyl-2-oxidotetrahydro-4H-furo[3,2-d][1,3,2]dioxaphosphinin-2-yl}-L-alaninate] | > 20

Same assay, conditions: HuH-7 cells containing a subgenomic HCV Replicon; read-out: Replicon Assay EC50

Molecule | EC50 [µM]
COCCCOC(=O)[C@H](C)NP1(=O)OC[C@H]2O[C@@H](n3ccc(N)nc3=O)[C@](C)(O)[C@@H]2O1 (stereo partly drawn) [Example 14, 3-methoxypropyl N[(4aR,6R,7R,7aR)-6-(4-amino-2-oxopyrimidin-1(2H)-yl)-7-hydroxy-7-methyl-2-oxidotetrahydro-4H-furo[3,2-d][1,3,2]dioxaphosphinin-2-yl]-L-alaninate] | 28
n-heptyl N-{(4aR,6R,7R,7aR)-7-hydroxy-7-methyl-6-[4-[(1-methylene-2-propylpentyl)amino]-2-oxopyrimidin-1(2H)-yl]-2-oxidotetrahydro-4H-furo[3,2-d][1,3,2]dioxaphosphinin-2-yl}-L-alaninate [Example 22] | 12
